Measured values reported in paper PMC7112044 (Bioorganic Chemistry, 2008).
Read-outs that look alike come from different tables or passages of the source.

What was measured:
[1] = biological target: SARS 3CL^pro (Severe acute respiratory syndrome coronavirus, UniProt P0C6X7); test: biochemical; type: biochemical, SARS-CoV
[2] = biological target: 3CL^pro (Severe acute respiratory syndrome coronavirus, UniProt P0C6X7); type: binding, SARS-CoV
[3] = pH 7, read-out: Inhibition (100 μM)

O=C(c1cccs1)C(F)c1cccnc1 (centres unmarked) [Compound 6, 2-Fluoro-2-(pyridin-3-yl)-1-(thiophen-2-yl)ethanone]
change of inhibition after 2 h preincubation with 3CL^pro [1]: no improved inhibition | inhibition at 100 µM [1, 3]: 10%

O=C(c1ccco1)C(F)(F)c1cccc(Cl)c1 [Compound 13b, 2-(3-Chlorophenyl)-2,2-difluoro-1-(furan-2-yl)ethanone]
inhibition at 100 µM [1, 3]: 13%

O=C(c1ccco1)C(F)c1cccc(Cl)c1 (centres unmarked) [Compound 12b, 2-(3-Chlorophenyl)-2-fluoro-1-(furan-2-yl)ethanone]
inhibition at 100 µM [1, 3]: 15%

2-(5-Bromopyridin-3-yl)-2,2-difluoro-1-(furan-2- yl)ethanone [Compound 12c]
Inhibition (100 μM) ([1]; pH 7): 21%

O=C(Cc1cccc(Cl)c1)c1ccco1 [Compound 11b, 2-(3-Chlorophenyl)-1-(furan-2-yl)ethanone]
inhibition at 100 µM ([1]; read-out: Inhibition (100 μM)): < 10%

O=C(c1ccco1)C(F)c1cncc(Cl)c1 (centres unmarked) [Compound 12a, 2-(5-Chloropyridin-3-yl)-2-fluoro-1-(furan-2-yl)ethanone]
inhibition at 100 µM [1, 3]: 14%

O=C(c1cccs1)C(F)(F)c1cccnc1 [Compound 7, 2,2-difluoro-2-(pyridin-3-yl)-1-(thiophen-2-yl)ethanone]
change of inhibition after 2 h preincubation with 3CL^pro [1]: no improved inhibition | potency of inhibition relative to pyridinyl ester 1 [1]: 2- to 3 fold | inhibition at 100 µM [1, 3]: 38%

O=C(Cc1cncc(Br)c1)c1cc(-c2ccc(Cl)cc2)on1 [Compound 28, 2-(5-Bromopyridin-3-yl)-1-(5-(4-chlorophenyl)isoxazol-3-yl)ethanone]
inhibition at 100 µM [1, 3]: 35%

O=C(Cc1cncc(Br)c1)c1ccc(-c2ccc(Cl)cc2)o1 [Compound 11d, 2-(5-Bromopyridin-3-yl)-1-(5-(4-chlorophenyl)furan-2-yl)ethanone]
change of inhibitory activity after 2 h preincubation with 3CL^pro [1]: no improved inhibitory activity | mass change in the major mass peak of 3CL^pro [2]: no mass change

O=C(Cc1cncc(Cl)c1)c1ccco1 [Compound 11a, 2-(5-Chloropyridin-3-yl)-1-(furan-2-yl)ethanone]
inhibition at 100 µM ([1]; read-out: Inhibition (100 μM)): < 10%

O=C(c1ccco1)C(F)(F)c1cncc(Cl)c1 [Compound 13a, 2-(5-Chloropyridin-3-yl)-2,2-difluoro-1-(furan-2-yl)ethanone]
inhibition at 100 µM [1, 3]: 27%

O=C(c1ccc(-c2ccc(Cl)cc2)o1)C(F)c1cncc(Br)c1 (centres unmarked) [Compound 12d, 2-(5-Bromopyridin-3-yl)-1-(5-(4-chlorophenyl)furan-2-yl)-2-fluoroethanone]
change of inhibitory activity after 2 h preincubation with 3CL^pro [1]: no improved inhibitory activity | mass change in the major mass peak of 3CL^pro [2]: no mass change

O=C(c1ccc(-c2ccc(Cl)cc2)o1)C(F)(F)c1cncc(Br)c1 [Compound 13d, 2-(5-Bromopyridin-3-yl)-1-(5-(4-chlorophenyl)furan-2-yl)-2,2-difluoroethanone]
change of inhibitory activity after 2 h preincubation with 3CL^pro [1]: no improved inhibitory activity | mass change in the major mass peak of 3CL^pro [2]: no mass change

O=C(Cc1cncc(Br)c1)c1ccco1 [Compound 11c, 2-(5-Bromopyridin-3-yl)-1-(furan-2-yl)ethanone]
inhibition at 100 µM ([1]; read-out: Inhibition (100 μM)): < 10%
